Values joined by “and” are separate entries in the source; they are usually repeats but may differ in a detail not shown here. Equal entries are not always repeated. Toxic doses and inconclusive results are not listed. How the source made its calls: active means survival T/C of 150% or more; inactive means T/C below 125% in these data.
Test system: P388 leukemia ip, CD2F1 mice, survival T/C
Assay: NCI In Vivo Anticancer Drug Screen. Data for tumor model P388 Leukemia (intraperitoneal) in CD2F1 (CDF1) mice
Conditions: endpoint: median survival time, higher = longer survival
Summary of the method: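 Mice carrying the transplanted tumor received test compound or vehicle. Survival was recorded in each group, and the value is the treated-group measurement divided by that of the vehicle-treated control group.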

[1] = dose: 50.0 mg/kg/injection, schedule: Q01DX005 (ip), vehicle: saline with Tween-80
[2] = dose: 50.0 mg/kg/injection, schedule: Q01DX009 (ip), vehicle: Klucel (hydroxypropylcellulose) (HPC)
[3] = dose: 100.0 mg/kg/injection, schedule: Q01DX009 (ip), vehicle: Klucel (hydroxypropylcellulose) (HPC)
[4] = dose: 200.0 mg/kg/injection, schedule: Q01DX009 (ip), vehicle: Klucel (hydroxypropylcellulose) (HPC)
[5] = dose: 100.0 mg/kg/injection, schedule: Q01DX009 (ip), vehicle: saline with Tween-80
[6] = dose: 100.0 mg/kg/injection, schedule: Q01DX005 (ip), vehicle: saline with Tween-80
[7] = dose: 200.0 mg/kg/injection, schedule: Q01DX005 (ip), vehicle: saline with Tween-80
[8] = dose: 12.5 mg/kg/injection, schedule: Q01DX009 (ip), vehicle: saline with Tween-80
[9] = dose: 25.0 mg/kg/injection, schedule: Q01DX009 (ip), vehicle: saline with Tween-80
[10] = dose: 100.0 mg/kg/injection, schedule: Q04DX002 (ip), vehicle: saline with Tween-80
[11] = dose: 60.0 mg/kg/injection, schedule: Q01DX005 (ip), vehicle: saline with Tween-80
[12] = dose: 120.0 mg/kg/injection, schedule: Q01DX005 (ip), vehicle: saline with Tween-80
[13] = dose: 240.0 mg/kg/injection, schedule: Q01DX005 (ip), vehicle: saline with Tween-80

Measured: T/C

CCCN(CCC)CC(C)(C)C(O)c1ccc(OC)c2ccccc12 (stereo not given)
inactive: dose: 25.0 mg/kg/injection, schedule: Q01DX005 (ip), vehicle: saline with Tween-80 110 % of control | [1] 108 % of control

C/C(CC/C(C)=N/N=C(\N)c1ccccn1)=N\N=C(/N)c1ccccn1
inactive: [2] 99 % of control | [3] 98 % of control | [4] 99 % of control

CN(C)CCCN1c2ccccc2C2CC2c2ccccc21 (stereo not given)
inactive: dose: 5.0 mg/kg/injection, schedule: Q01DX009 (ip), vehicle: saline with Tween-80 100 % of control | [5] 98 % of control

C/C(=N\NC(=S)N1CCC(C2CCN(C(=S)N/N=C(\C)c3ccccn3)CC2)CC1)c1ccccn1
inactive: [1] 112 % of control and 97 % of control | [6] 114 % of control and 122 % of control | [7] 118 % of control | dose: 400.0 mg/kg/injection, schedule: Q01DX005 (ip), vehicle: saline with Tween-80 120 % of control

CC1(O)c2ccccc2[P+](C)(c2ccccc2)c2ccccc21 (stereo not given)
inactive: [8] 111 % of control | [9] 109 % of control

COc1ccc(C2CC(=O)N(CN3CCN(c4ccc(Cl)cc4)CC3)C(=O)C2)cc1
inactive: dose: 6.25 mg/kg/injection, schedule: Q01DX009 (ip), vehicle: saline with Tween-80 94 % of control | [8] 94 % of control | [9] 91 % of control | dose: 200.0 mg/kg/injection, schedule: Q01DX009 (ip), vehicle: saline with Tween-80 92 % of control

C=C(C1OC2OC(C)(C)OC2C1OC)P(=O)(OC(C)C)OC(C)C (stereo not given)
inactive: [10] 98 % of control | dose: 200.0 mg/kg/injection, schedule: Q04DX002 (ip), vehicle: saline with Tween-80 98 % of control

CCC(=O)NC(CC(=O)O)c1cccs1 (stereo not given)
inactive: dose: 12.5 mg/kg/injection, schedule: Q01DX009 (ip), vehicle: saline 102 % of control | dose: 25.0 mg/kg/injection, schedule: Q01DX009 (ip), vehicle: saline 104 % of control | dose: 50.0 mg/kg/injection, schedule: Q01DX009 (ip), vehicle: saline 107 % of control | dose: 100.0 mg/kg/injection, schedule: Q01DX009 (ip), vehicle: saline 90 % of control | dose: 200.0 mg/kg/injection, schedule: Q01DX009 (ip), vehicle: saline 93 % of control

CC(=O)OCC1=COC(OC(=O)CC(C)(C)OC(C)=O)C2C1=CC(OC(=O)CC(C)C)[C@@]21CO1 (stereo not given in full)
inactive: dose: 10.0 mg/kg/injection, schedule: Q01DX005 (ip), vehicle: saline 97 % of control | dose: 20.0 mg/kg/injection, schedule: Q01DX005 (ip), vehicle: saline 93 % of control | dose: 40.0 mg/kg/injection, schedule: Q01DX005 (ip), vehicle: saline 99 % of control

O=C(O)CCCc1ccc2ccc3cccc4ccc1c2c34
inactive: [1] 102 % of control | [6] 98 % of control | [7] 100 % of control

COC(=O)C1(CC(=O)c2ccco2)NC(=S)NC(=O)C1C#N (stereo not given)
inactive: [11] 98 % of control | [12] 94 % of control | [13] 93 % of control

[Be]=[Se]
inactive: dose: 7.5 mg/kg/injection, schedule: Q01DX005 (ip), vehicle: other 97 % of control | dose: 15.0 mg/kg/injection, schedule: Q01DX005 (ip), vehicle: other 103 % of control and 108 % of control

C=C(C)CNC(=O)C(C)O (stereo not given)
inactive: [1] 97 % of control | [6] 93 % of control | [7] 99 % of control

N#CCSc1nc(N)nc2nc[nH]c12
inactive: dose: 50.0 mg/kg/injection, schedule: Q01DX009 (ip), vehicle: saline sonified 95 % of control | dose: 50.0 mg/kg/injection, schedule: Q04DX003 (ip), vehicle: saline with Tween-80 95 % of control | dose: 100.0 mg/kg/injection, schedule: Q01DX009 (ip), vehicle: saline sonified 100 % of control | dose: 100.0 mg/kg/injection, schedule: Q04DX003 (ip), vehicle: saline with Tween-80 100 % of control | dose: 200.0 mg/kg/injection, schedule: Q01DX009 (ip), vehicle: saline sonified 95 % of control | dose: 200.0 mg/kg/injection, schedule: Q04DX003 (ip), vehicle: saline with Tween-80 95 % of control

Cn1c(N)c(-n2[nH]c(=O)n(-c3ccccc3)c2=O)c(=O)n(C)c1=O
inactive: [2] 106 % of control | [3] 95 % of control | [4] 98 % of control

c1c(-c2cc(C3CC3)[nH]n2)n[nH]c1C1CC1
inactive: dose: 60.0 mg/kg/injection, schedule: Q01DX005 (ip), vehicle: saline 101 % of control | dose: 120.0 mg/kg/injection, schedule: Q01DX005 (ip), vehicle: saline 97 % of control | dose: 240.0 mg/kg/injection, schedule: Q01DX005 (ip), vehicle: saline 100 % of control

C1CCCc2c(-c3n[nH]c4c3CCCCCC4)n[nH]c2CC1
inactive: [11] 100 % of control | [12] 95 % of control | [13] 100 % of control

NN=C(c1ccc(Br)cc1)c1ccc(Br)cc1
inactive: dose: 25.0 mg/kg/injection, schedule: Q04DX002 (ip), vehicle: saline with Tween-80 100 % of control | dose: 50.0 mg/kg/injection, schedule: Q04DX002 (ip), vehicle: saline with Tween-80 101 % of control | [10] 100 % of control and 105 % of control

N#Cc1ncc(C=P(c2ccccc2)(c2ccccc2)c2ccccc2)n(O)c1=N
inactive: dose: 50.0 mg/kg/injection, schedule: Q01DX009 (ip), vehicle: saline with Tween-80 101 % of control | [5] 104 % of control

N#CSCCSC#N
inactive: dose: 6.25 mg/kg/injection, schedule: Q04DX002 (ip), vehicle: Klucel (hydroxypropylcellulose) (HPC) 100 % of control | dose: 12.5 mg/kg/injection, schedule: Q04DX002 (ip), vehicle: Klucel (hydroxypropylcellulose) (HPC) 97 % of control

— PubChem BioAssay AID330 (DTP/NCI, 2004)
